Assay results: ChEMBL document CHEMBL1150718, “Antineoplastic agents, 122. Constituents of Combretum caffrum” (1987)
In brackets after ≈: the same amount, converted by molar mass. Activity calls are given as the source filed them. The rule behind the calls is not given here.

What was measured:
P388 [1] = experiment: Growth inhibition of mouse P388 cells; assay type: functional
P388 [2] = experiment: In vivo cytotoxicity against mouse P388 cells at 5 mg/kg; assay type: functional, organism-based; parameters: dose 5 mg/kg
[3] = Cytotoxicity against rat 9ASK cells at 0.1 ug/ml; assay type: functional
[4] = Antimitotic activity against rat 9ASK cells assessed as reversal of astrocyte morphology at 0.1 ug/ml; assay type: functional
[5] = Antimitotic activity against rat 9ASK cells assessed as reversal of astrocyte morphology at 1 to 100 ug/ml; assay type: functional

| EC50 (P388 [1]; read-out: ED50 (the source's name)) [µg/mL] | SMILES | ED50 (P388 [1]) | Activity (P388 [2]) | Activity [3] [%] | Activity [4] [%] | Activity [5] [%] |
| --- | --- | --- | --- | --- | --- | --- |
| – | COc1ccc(-c2cc(=O)c3c(O)cc(O)cc3o2)cc1 | inactive | – | – | – | – |
| 0.011 (≈ 0.0329 µM) | COc1ccc(C[C@@H](O)c2cc(OC)c(OC)c(OC)c2)cc1O [COMBRETASTATIN] | – | Active | 0 | 51 | 71 |
| – | COc1cc2c(=O)oc3c(OC)c(O)cc4c(=O)oc(c1OC)c2c34 | inactive | – | – | – | – |
